Test results from patent US20080096967A1, “Formulations for Injection of Catecholic Butanes, Including Ndga Compounds, Into Animals” (priority 2005, published 2008).

Tested on: C-33A, an HPV-negative human cervical cancer cell line
Assay: Cell proliferation and cell death, trypan blue exclusion, C-33A cells
Format: cell-based
Conditions: for Proliferation Rate: treated/untreated cells
Protocol: M4N in 10% (w/v) HP-β-CD and 25% (v/v) PEG 300 (hereafter, the “CPE formulation”), M4N in 30% (w/v) HP-β-CD and 25% (v/v) PEG 300 (hereafter, the “CPE 25/30 formulation”) and M4N in 27% (w/v) HP-β-CD and 33% (v/v) PEG 300 (hereafter, the “CPE 33/27 formulation”) was tested for their effects on cell death and proliferation on two different tumor cell lines: HeLa, an HPV-18 positive human cervical cancer cell line, and C-33A, an HPV-negative human cervical cancer cell line M4N in DMSO was also tested in parallel. Both tumor cell lines were treated with increasing amounts of M4N: 0 μM, 20 μM, 40 μM, 60 μM and 80 μM, for 72 hr with the DMSO or the CPE formulation. Each formulation was added to total 1% of the growth media (Minimal Essential Medium with L-glutamine supplemented with 10% fetal bovine serum, 1 mM sodium pyruvate, 1× non-essential amino acid solution, and 1,000 IU/mL penicillin/1,000 μg/mL streptomycin solution). Control cells were grown under the same conditions and were left untreated. After 72 hr of treatment or no treatment, the total number of cells and the number of live cells in each sample were counted, using the trypan blue exclusion method. The cell proliferation rate and the percentage of dead cells in each sample were analyzed. Results of this experiment are shown in FIG. 1, FIG. 2, and Tables 6 through 12.
FIG. 1 is a graphical representation of the ratio of the number of treated cells/number of untreated cells plotted against increasing concentrations of M4N in either the DMSO formulation or the CPE formulation for treatment of the C-33A cells and HeLa cells. FIG. 2 is a graphical representation of the percentage of dead cells plotted against increasing concentrations of M4N and in either DMSO formulation or the CPE formulation for treatment of the two cancer cell lines, C-33A and HeLa cells in culture.

[1] = M4N 20 μM in CPE formulation, 72 hr
[2] = M4N 60 μM in CPE formulation, 72 hr
[3] = M4N 80 μM in CPE formulation, 72 hr

SMILES: COc1ccc(C[C@@H](C)[C@@H](C)Cc2ccc(OC)c(OC)c2)cc1OC [Formulation M4N, meso-1,4-bis(3,4-dimethoxyphenyl)-2,3-dimethylbutane]
- cell death, share of the cell population (80 μM or […] M4N in CPE formulation): about 20%
- cell death, share of the cell population (80 μM or […] M4N in DMSO formulation): about 40%
- M4N sufficient to cause about a 50% inhibition in cell proliferation (CPE formulation, 72 hr): ~7.2 µg/mL
- % Dead Cells [1]: 7.0%
- % Viability [1]: 93.0%
- Proliferation Rate [1]: 0.43
- % Dead Cells (M4N 20 μM in DMSO, 72 hr): 17.4%
- % Viability (M4N 20 μM in DMSO, 72 hr): 82.6%
- Proliferation Rate (M4N 20 μM in DMSO, 72 hr): 0.20
- Proliferation Rate (M4N 40 μM in CPE formulation, 72 hr): 0.43
- % Dead Cells (M4N 40 μM in DMSO, 72 hr): 33.0%
- % Viability (M4N 40 μM in DMSO, 72 hr): 67.0%
- Proliferation Rate (M4N 40 μM in DMSO, 72 hr): 0.15
- % Dead Cells [2]: 10.6%
- % Viability [2]: 89.4%
- Proliferation Rate [2]: 0.22
- % Dead Cells (M4N 60 μM in DMSO, 72 hr): 39.6%
- % Viability (M4N 60 μM in DMSO, 72 hr): 60.4%
- Proliferation Rate (M4N 60 μM in DMSO, 72 hr): 0.14
- % Dead Cells [3]: 22.5%
- % Viability [3]: 77.5%
- Proliferation Rate [3]: 0.15
- % Dead Cells (M4N 80 μM in DMSO, 72 hr): 43.3%
- % Viability (M4N 80 μM in DMSO, 72 hr): 56.7%
- Proliferation Rate (M4N 80 μM in DMSO, 72 hr): 0.11
- Cell proliferation rate (M4N in DMSO or CPE formulation vs non-M4N-treated controls in the same formulation): reduced
